# Reference: PMC12495412, “Coumarin/nitrogen-bearing heterocyclic hybrid-loaded electrospun PMMA/PVP nanofibrous scaffolds for accelerating topical wound healing rates: synthesis and in vitro bio-evaluation” (RSC Advances, 2025)
# Several values for one entry are separate records, joined by “and”; a condition that tells them apart may be missing. Equal values may be shown once. Marks after values point to notes of the source that are not given here.
# Key:
# Bacillus subtilis [1] = experiment: Biofilm inhibition test (spectrophotometric); assay type: cell-based; settings: 24 h, 37 °C, OD vs untreated
# Protocol: (§1) Additionally, a spectrophotometric antibiofilm assay was utilized to determine whether the evaluated formulations might inhibit the growth of pathogens. Fresh nutritional broth was inoculated with each pathogen separately, and this mixture was then incubated at 37 °C at 200 rpm. The optical density (OD) at 600 nm was measured over a 6 h incubation period, allowing for an estimation of the starting microbe's exponential phase (3 × 10^7 CFU mL^−1). To produce treated cultures, 900 μL of planktonic cultures were collected aseptically with 100 μL of each formulation. Furthermore, untreated (formula-free) cultures of pathogens were grown as controls. The cultures were then incubated for 24 hours at 200 rpm and 37 °C. Through spectroscopic evaluation of microbial turbidity, the inhibitory effects of the examined formulations were determined.[27] By comparing the OD of the treated sample with the matching controls, anti-biofilm percentages for each formula were computed.[28]
# Klebsiella pneumoniae [2] = experiment: Biofilm inhibition test (spectrophotometric); assay type: cell-based; settings: 24 h, 37 °C, OD vs untreated
# Protocol: as §1
# Candida glabrata [3] = experiment: Biofilm inhibition test (spectrophotometric); assay type: cell-based; settings: 24 h, 37 °C, OD vs untreated
# Protocol: as §1
# Candida krusei [4] = experiment: Biofilm inhibition test (spectrophotometric); assay type: cell-based; settings: 24 h, 37 °C, OD vs untreated
# Protocol: as §1
# Salmonella paratyphi [5] = experiment: Biofilm inhibition test (spectrophotometric); assay type: cell-based; settings: 24 h, 37 °C, OD vs untreated
# Protocol: as §1
# Candida parapsilosis [6] = experiment: Biofilm inhibition test (spectrophotometric); assay type: cell-based; settings: 24 h, 37 °C, OD vs untreated
# Protocol: as §1
# Escherichia coli [7] = experiment: Biofilm inhibition test (spectrophotometric); assay type: cell-based; settings: 24 h, 37 °C, OD vs untreated
# Protocol: as §1
# Staphylococcus aureus [8] = experiment: Biofilm inhibition test (spectrophotometric); assay type: cell-based; settings: 24 h, 37 °C, OD vs untreated
# Protocol: as §1
# [9] = system: Staphylococcus epidermidis; experiment: Biofilm inhibition test (spectrophotometric); assay type: cell-based; settings: 24 h, 37 °C, OD vs untreated
# Protocol: as §1
# Bacillus cereus [10] = experiment: Biofilm inhibition test (spectrophotometric); assay type: cell-based; settings: 24 h, 37 °C, OD vs untreated
# Protocol: as §1
# Candida albicans [11] = experiment: Biofilm inhibition test (spectrophotometric); assay type: cell-based; settings: 24 h, 37 °C, OD vs untreated
# Protocol: as §1
# Pseudomonas aeruginosa [12] = experiment: Biofilm inhibition test (spectrophotometric); assay type: cell-based; settings: 24 h, 37 °C, OD vs untreated
# Protocol: as §1
# Bacillus subtilis [13] = experiment: Agar-well diffusion of formulations; assay type: cell-based; settings: 50 μL per 5 mm well, 37 °C
# Protocol: (§2) The antimicrobial qualities of formulations were evaluated in this study using a variety of techniques. The formulations including 8 PMMA and 2 PVP, which contained varying doses of drug A (0.5% = T1, 1% = T2, 3% = T3, and 5% = T4) or drug B (0.5% = T5, 1% = T6, 3% = T7, and 5% = T8), as well as a combination of 2.5% of drug A and 2.5% of drug B (T9) were assessed. The tested human pathogens were cultivated in a nutritional broth medium containing 0.5% peptone, 0.3% yeast extract, 0.2% beef extract, 0.1% glucose, and 0.5% NaCl in accordance with 0.5 McFarland turbidity criteria.[25] To carry out the agar-well diffusion analysis, microbial cultures (100 μL) were spread on nutrient agar plates using sterile cotton swabs. After drilling each well with a sterile cork-borer of 5 mm in diameter, 50 μL of the tested formulations and the control (composed of 8 PMMA and 2 PVP) were loaded. Agar plates were thereafter left to incubate at 37 °C for an entire day. The inhibitory zone that surrounds each well was measured in millimeters (mm) using a ruler.[26]
# Klebsiella pneumoniae [14] = experiment: Agar-well diffusion of formulations; assay type: cell-based; settings: 50 μL per 5 mm well, 37 °C
# Protocol: as §2
# Candida glabrata [15] = experiment: Agar-well diffusion of formulations; assay type: cell-based; settings: 50 μL per 5 mm well, 37 °C
# Protocol: as §2
# Candida krusei [16] = experiment: Agar-well diffusion of formulations; assay type: cell-based; settings: 50 μL per 5 mm well, 37 °C
# Protocol: as §2
# Salmonella paratyphi [17] = experiment: Agar-well diffusion of formulations; assay type: cell-based; settings: 50 μL per 5 mm well, 37 °C
# Protocol: as §2
# Candida parapsilosis [18] = experiment: Agar-well diffusion of formulations; assay type: cell-based; settings: 50 μL per 5 mm well, 37 °C
# Protocol: as §2
# Escherichia coli [19] = experiment: Agar-well diffusion of formulations; assay type: cell-based; settings: 50 μL per 5 mm well, 37 °C
# Protocol: as §2
# Staphylococcus aureus [20] = experiment: Agar-well diffusion of formulations; assay type: cell-based; settings: 50 μL per 5 mm well, 37 °C
# Protocol: as §2
# [21] = system: Staphylococcus epidermidis; experiment: Agar-well diffusion of formulations; assay type: cell-based; settings: 50 μL per 5 mm well, 37 °C
# Protocol: as §2
# Bacillus cereus [22] = experiment: Agar-well diffusion of formulations; assay type: cell-based; settings: 50 μL per 5 mm well, 37 °C
# Protocol: as §2
# Candida albicans [23] = experiment: Agar-well diffusion of formulations; assay type: cell-based; settings: 50 μL per 5 mm well, 37 °C
# Protocol: as §2
# Pseudomonas aeruginosa [24] = experiment: Agar-well diffusion of formulations; assay type: cell-based; settings: 50 μL per 5 mm well, 37 °C
# Protocol: as §2
# [25] = system: multidrug-resistant human pathogens; experiment: Agar-well diffusion of formulations, whole panel; assay type: cell-based; settings: all human pathogens investigated
# Protocol: as §2
# A549 cells [26] = experiment: Wound healing scratch (anti-migration) assay; assay type: cell-based, human; settings: IC50 doses, 48 h
# Protocol: To assess the anti-migration inhibition capability of newly synthesized derivatives, a wound healing technique was employed. A549 cells were planted in 12-well plates and kept alive at 37 °C until they achieved 80–90% fluency. The cell monolayers were smashed with a sterile tip and exposed to the prepared derivatives at IC50 doses. At 0 and 48 h of treatment, the wound closure area was captured and calculated by imaging analysis with the Cell-Sens software (Olympus, Japan).
# A549 cells [27] = experiment: MTT anticancer assay; assay type: cell-based, human; settings: Homo sapiens, A549, lung carcinoma cells, 48 h
# Text: (§3) MTT assay: the normal cell line (Wi-38), colon cancer (Caco-2), lung cancer (A549), and breast cancer (MDA) cell lines were sourced from ATCC, USA. All different cell lines were cultivated and preserved in DMEM medium (SERANA, Germany), accompanied by 10% FBS (Gibco, USA) and 1% Pen/Strep solution (Lonza, USA). The newly prepared derivatives at various doses were considered for their anticancer activity and their safety on normal cells, applying MTT (3-[4, 5-dimethylthiazol]-2, 5-diphenyltetrazolium bromide) methods.[22] At first, all normal and cancer cell lines (1.0 ×10^4) were inoculated in 4 antiseptic 96-well tissue culture microplates and incubated for 24 h in a CO2 incubator. After cell attachments, the prepared derivatives were added to both normal Wi-38 cells at diverse concentrations of (6.25–200 μg mL^−1, 2-fold) and cancer cells at different concentrations of (3.125–100 μg mL^−1, 2-fold) in triplicate and incubated for another 48 h at 37 °C in a CO2 incubator with an adjusted concentration of 5%. After that, the treated cells were cleaned three times with PBS to remove debris and dead cells. Next, 200 μL of 0.5 mg mL^−1 MTT dye solution in PBS was mixed in each well, and the cells were further kept for 3 h at 37 °C in a 5% CO2 incubator. After that, MTT was removed and 200 μL of DMSO was added to each well. The optical density (OD) was recorded at 570 nm via a microplate reader (B.M.G. LabTech, Germany). Basic cells (untreated) were utilized as negative control cells, and 5-fluorouracil (5-FU) was included as a standard chemotherapy drug. The qualified cell viability (%) was evaluated as in equation (eqn (1)):1 Relative cell viability (%) = […] A1 is the OD of the examined derivative, A0 is the OD of the standard, and AU is the OD of the untreated cells.
# (§4) Anticancer activity assay: the anticancer effect of each derivative was assessed by evaluating the half-maximal inhibitory concentration (IC50) value via the GraphPad Prism 7.0 software. However, SI (selective index) values of each derivative were estimated by splitting the IC50 value of healthy cells by the IC50 value of malignant cells, as previously reported.[23] The effects of the created derivatives on the morphology of MDA cells were evaluated at IC50 doses and captured by phase-contrast microscopy (Olympus, Germany) in comparison to untreated control cells.
# MDA cells = experiment: MTT anticancer assay; assay type: cell-based, human; settings: Homo sapiens, Breast carcinoma cell, 48 h
# Text: as §3, §4
# all applied pathogens = experiment: Agar-well diffusion of synthesized compounds, whole panel; assay type: cell-based
# Text: (§5) The antimicrobial activity of the prepared compounds was estimated through an agar-well diffusion method as adapted from the modified Kirby–Bauer protocol.[24] In this test, microbial pathogens were applied, including Staphylococcus aureus ATCC 25923 (S. aureus), Streptococcus mutans ATCC 25175 (S. mutans), Bacillus cereus ATCC 19637 (B. cereus), Bacillus aureus ATCC 25923 (B. aureus), Bacillus epidermidis ATCC 14990 (B. epidermidis), and Bacillus subtilis ATCC 11774 (B. subtilis) as Gram-positive bacteria, and Pseudomonas aeruginosa ATCC 27853 (P. aeruginosa), Klebsiella pneumonia ATCC 13883 (K. pneumonia), and Salmonella typhimurium ATCC 14028 (S. typhimurium), Salmonella pneumoniae ATCC 10031(S. pneumoniae), Escherichia coli ATCC 10536 (E. coli), and Salmonella paratyphi ATCC 9150 (S. paratyphi) as Gram-negative bacteria. Additionally, Candida albicans (ATCC 10231), Candida krusei ATCC 6258 (C. krusei), Candida glabrata ATCC 66032 (C. glabrata), andCandida parapsilosis ATCC 22019 (C. parapsilosis) were applied as models of unicellular fungi. The pre-inoculation cultures of the pathogens were prepared on Muller–Hinton broth and cultivated for 24 h at 37 °C. The agar-well test was prepared on Muller–Hinton agar with 100 μL of each pathogen pre-culture (0.5 McFarland conc.) and uniformly distributed on the plate surface. Under aseptic conditions, six wells were created on the agar surface using a sterile corkborer (9 mm). To each well, 100 μL of the prepared compound (10 mg mL^−1) was separately inserted into each plate. All plates were incubated for 24 h at 37 °C; the established inhibition zones (Halo-zones) surrounding the wells indicated positive antimicrobial activity and were stated as the radius of the inhibition zone (mm).
# S. typhimurium = experiment: Agar-well diffusion of synthesized compounds; assay type: cell-based, Salmonella typhimurium ATCC 14028; settings: Salmonella enterica, 100 μL of 10 mg mL^−1 per well, 24 h, 37 °C
# Text: as §5, with “Under aseptic conditions, six wells were created on the agar surface using a sterile corkborer (9 mm). To each well, 100 μL of the prepared compound (10 mg mL^−1) was separately inserted into each plate. All plates were incubated for 24 h at 37 °C; the established inhibition zones (Halo-zones) surrounding the wells indicated positive antimicrobial activity and were stated as the radius of the inhibition zone (mm).” left out
# S. mutans = experiment: Agar-well diffusion of synthesized compounds; assay type: cell-based, Streptococcus mutans ATCC 25175; settings: Streptococcus mutans, 100 μL of 10 mg mL^−1 per well, 24 h, 37 °C
# Text: as §5
# Wi-38 cells = experiment: MTT cytotoxicity assay, normal cells; assay type: cell-based; settings: WI-38, normal human lung fibroblast cells, 48 h
# Text: as §3, §4
# S. aureus = experiment: Agar-well diffusion of synthesized compounds; assay type: cell-based, Staphylococcus aureus ATCC 25923; settings: Staphylococcus aureus, 100 μL of 10 mg mL^−1 per well, 24 h, 37 °C
# Text: as §5, with “Under aseptic conditions, six wells were created on the agar surface using a sterile corkborer (9 mm). To each well, 100 μL of the prepared compound (10 mg mL^−1) was separately inserted into each plate. All plates were incubated for 24 h at 37 °C; the established inhibition zones (Halo-zones) surrounding the wells indicated positive antimicrobial activity and were stated as the radius of the inhibition zone (mm).” left out
# Caco-2 cells = experiment: MTT anticancer assay; assay type: cell-based
# Text: as §3, §4
smiles,measurement,setting,value
O=C(Nc1ccc(Nc2c3ccccc3nc3ccccc23)cc1)c1cc2ccccc2oc1=O [Compound C3],Biofilm reduction,Bacillus subtilis [1],37.29 ± 2.84^h %
same,Biofilm reduction,Klebsiella pneumoniae [2],20.56 ± 2.65^h %
same,Biofilm reduction,Candida glabrata [3],35.48 ± 2.58^h %
same,Biofilm reduction,Candida krusei [4],29.91 ± 2.44^h %
same,Biofilm reduction,Salmonella paratyphi [5],22.55 ± 1.87^h %
same,Biofilm reduction,Candida parapsilosis [6],25.79 ± 1.98^h %
same,Biofilm reduction,Escherichia coli [7],20.93 ± 3.64^h %
same,Biofilm reduction,Staphylococcus aureus [8],31.25 ± 2.98^h %
same,Biofilm reduction,[9],34.71 ± 1.56^h %
same,Biofilm reduction,Bacillus cereus [10],23.36 ± 2.96^h %
same,Biofilm reduction,Candida albicans [11],27.13 ± 3.96^h %
same,Biofilm reduction,Pseudomonas aeruginosa [12],22.35 ± 2.58^h %
same,Inhibition zone diameters,Bacillus subtilis [13],0 mm
same,Inhibition zone diameters,Klebsiella pneumoniae [14],0 mm
same,Inhibition zone diameters,Candida glabrata [15],0 mm
same,Inhibition zone diameters,Candida krusei [16],0 mm
same,Inhibition zone diameters,Salmonella paratyphi [17],0 mm
same,Inhibition zone diameters,Candida parapsilosis [18],7.25 ± 2.33^fg mm
same,Inhibition zone diameters,Escherichia coli [19],0 mm
same,Inhibition zone diameters,Staphylococcus aureus [20],0 mm
same,Inhibition zone diameters,[21],0 mm
same,Inhibition zone diameters,Bacillus cereus [22],0 mm
same,Inhibition zone diameters,Candida albicans [23],9.29 ± 1.25^fg mm
same,Inhibition zone diameters,Pseudomonas aeruginosa [24],0 mm
same,Antimicrobial effect,[25],only has an impact on a few examined yeast infections
"Cc1ccc(-c2nnc(Nc3ccc(NC(=O)c4cc5ccccc5oc4=O)cc3)c3ccccc23)cc1 [Compound C, 2-oxo-N-(4-((4-(p-tolyl)phthalazin-1-yl)amino)phenyl)-2H-chromene-3-carboxamide]",Migration inhibition,A549 cells [26],74.45% and 79.09%
same,IC50,A549 cells [27],12.2 ± 1.36 µg/mL
same,IC50,MDA cells,6.06 ± 0.81 µg/mL
same,Antimicrobial activity,all applied pathogens,wide-spectrum antibacterial activity
same,zone of inhibition at 10 mg/mL,S. typhimurium,~15.5 mm
same,zone of inhibition at 10 mg/mL,S. mutans,~17.2 mm
same,IC50,Wi-38 cells,137 ± 11.7 µg/mL
same,zone of inhibition at 10 mg/mL,S. aureus,~19.5 mm
same,IC50,"Caco-2 cells; Homo sapiens, Caco-2, colon carcinoma cells, MTT, 48 h",7.11 ± 1.68 µg/mL
same,SI Caco-2,Caco-2 cells; IC50 Wi-38 / IC50 Caco-2,19.25 ± 1.36
